The values that follow come from patent publication US20220267260A1, “COMPOUNDS CONTAINING A SULFONIC GROUP AS KAT INHIBITORS” (Epizyme, Inc., priority 2016, published 2022).

pIC50: −log10 of the molar value. Some results are limits rather than exact numbers.

One test concerns the target T1, KAT5 (Homo sapiens, UniProt Q92993).
T1 construct: His-TEV tag (N, cleaved yes); made in house
The experiment in a line: KAT5 enzyme inhibition assay (SAMDI mass spectrometry). The test is classed as biochemical. To be noted: His-TEV-FL KAT5-Flag enzyme construct.

For the next test, the target named is T2, KAT6A (Homo sapiens, UniProt Q92794).
T2 construct: His-TEV tag (N, cleaved yes); made in house
The experiment in a line: KAT6A enzyme inhibition assay (SAMDI mass spectrometry). Format: biochemical. The conditions noted are these: His-TEV-KAT6A 501-784 enzyme construct.

T1 sequence (Q92993 with tags, fused parts or gaps): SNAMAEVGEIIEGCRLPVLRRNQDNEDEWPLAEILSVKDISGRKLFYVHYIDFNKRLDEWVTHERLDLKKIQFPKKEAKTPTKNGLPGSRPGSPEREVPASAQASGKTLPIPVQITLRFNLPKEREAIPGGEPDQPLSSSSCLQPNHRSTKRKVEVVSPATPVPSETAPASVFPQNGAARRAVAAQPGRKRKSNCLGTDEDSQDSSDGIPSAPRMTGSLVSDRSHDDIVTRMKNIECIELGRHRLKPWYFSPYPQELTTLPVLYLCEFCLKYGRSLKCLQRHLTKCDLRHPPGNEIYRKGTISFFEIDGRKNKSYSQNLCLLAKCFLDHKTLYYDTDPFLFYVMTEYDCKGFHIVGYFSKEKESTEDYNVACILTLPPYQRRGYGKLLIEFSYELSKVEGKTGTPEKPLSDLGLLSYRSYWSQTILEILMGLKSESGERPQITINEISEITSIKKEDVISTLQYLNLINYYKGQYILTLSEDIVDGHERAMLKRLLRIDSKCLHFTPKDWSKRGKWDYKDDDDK
T2 sequence (Q92794 with tags, fused parts or gaps): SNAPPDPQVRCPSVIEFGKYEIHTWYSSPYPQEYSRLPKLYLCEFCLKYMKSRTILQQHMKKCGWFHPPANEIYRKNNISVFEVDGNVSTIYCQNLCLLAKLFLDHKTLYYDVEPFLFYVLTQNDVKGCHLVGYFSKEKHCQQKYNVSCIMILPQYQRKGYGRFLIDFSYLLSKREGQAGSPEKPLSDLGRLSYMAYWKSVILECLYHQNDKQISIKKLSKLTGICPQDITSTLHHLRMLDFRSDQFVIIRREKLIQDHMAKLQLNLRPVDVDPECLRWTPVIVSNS

As for `O=C(NNS(=O)(=O)C1CCCCC1)c1ccccc1F` [Compound I-116], the pIC50 against KAT5 and against KAT6A was below 4.00 throughout.

`Cc1cc(-c2ccccc2)cc(C(=O)NNS(=O)(=O)CC2CCOCC2)c1F` [Compound I-267]: the pIC50 against KAT5 and against KAT6A was at least 5.00 throughout.

As to `Cc1cc(-c2ccccc2)cc(C(=O)NNS(=O)(=O)CC2CCCN(C(=O)C(C)C)C2)c1F` (stereo not shown) [Compound I-369], the pIC50 against KAT5 and at KAT6A was at least 5.00 in each case.

On to `COc1ccc(Cn2ncc3c(C(=O)NNS(=O)(=O)c4ccccc4)cc(-c4ccccc4)cc32)cc1` [Compound I-247], for which the pIC50 on KAT5 was 4.00 to 4.30; on KAT6A it was 4.30 to 5.00.

In the case of `COc1ccccc1S(=O)(=O)NNC(=O)c1cc(-c2ccccc2)cc(C)c1F` [Compound I-176], the negative logarithm of the IC50 (pIC50) against KAT5 and at KAT6A was at least 5.00 throughout.

Regarding `O=C(NNS(=O)(=O)CC1CCCNC1)c1cc(-c2cccc(F)c2)cc(Cl)c1F` (stereo not shown) [Compound I-416], the negative logarithm of the IC50 (pIC50) at KAT5 and on KAT6A was 4.00 to 4.30 throughout.

In the case of `O=C(NC1CCC1)c1cc(Cl)c(F)c(C(=O)NNS(=O)(=O)C2CCOCC2)c1` [Compound I-488], the negative-log IC50 (pIC50) against KAT5 and at KAT6A was below 4.00 throughout.

As for `Cc1cc(-c2ccccc2)cc(C(=O)NNS(=O)(=O)C2CC3CCC(C2)N3)c1F` (stereo not shown) [Compound I-184], the pIC50 at KAT5 and against KAT6A was below 4.00 each time.

Consider `Cc1cccc(-c2cc(Cl)c(F)c(C(=O)NNS(=O)(=O)CC3CCN(C(=O)OC(C)(C)C)C3)c2)c1` (stereo not shown) [Compound I-516], for which the pIC50 is at least 5.00 at KAT5 and below 4.00 on KAT6A.

On to `Cn1cnc2c(C(=O)NNS(=O)(=O)C3CCCCC3)c(F)c(-c3ccccc3)cc21` [Compound I-468], for which the pIC50 at KAT5 and at KAT6A was below 4.00 throughout.

With `Cc1cc(-c2cccc(F)c2)cc(C(=O)NNS(=O)(=O)CC2CCN(C(=O)CCN(C)C(=O)OC(C)(C)C)CC2)c1F` [Compound I-327], the negative-log IC50 (pIC50) on KAT5 and against KAT6A was at least 5.00 throughout.

In the case of `CCc1cccc(-c2cc(C)c(F)c(C(=O)NNS(=O)(=O)CC3CCCCC3)c2)c1` [Compound I-373], the negative logarithm of the IC50 (pIC50) against KAT5 and at KAT6A was 4.00 to 4.30 in each case.

Turning to `Cc1cc(-c2ccncc2)cc(C(=O)NNS(=O)(=O)c2ccccc2)c1F` [Compound I-202], the negative-log IC50 (pIC50) was below 4.00 at KAT5 and 4.30 to 5.00 at KAT6A.

Turning to `O=C(NNS(=O)(=O)c1ccccc1)c1c(F)ccc(-c2ccccc2)c1F` [Compound I-10], the negative-log IC50 (pIC50) at KAT5 and against KAT6A was below 4.00 throughout.

Regarding `Cc1cc(-c2cccc(F)c2)cc(C(=O)NNS(=O)(=O)CC2CCN(C(=O)CCN(C)C)CC2)c1F` [Compound I-432], the negative logarithm of the IC50 (pIC50) against KAT5 and against KAT6A was 4.30 to 5.00 throughout.

With `CC(=O)N1CCC(S(=O)(=O)NNC(=O)c2cc(-c3ccccc3)cc(C)c2F)CC1` [Compound I-94], the pIC50 on KAT5 and on KAT6A was 4.30 to 5.00 in each case.

On to `COCC(=O)N1CCCC(CS(=O)(=O)NNC(=O)c2cc(-c3cccc(F)c3)cc(C)c2F)C1` (stereo not shown) [Compound I-289], for which the negative-log IC50 (pIC50) against KAT5 and against KAT6A was at least 5.00 each time.

As to `O=C(NNS(=O)(=O)C1CCOCC1)c1cc(C(=O)N2CCOCC2)cc(Cl)c1F` [Compound I-439], the pIC50 at KAT5 and against KAT6A was below 4.00 in each case.

Regarding `COCc1cc(Cl)c(F)c(C(=O)NNS(=O)(=O)C2CCOCC2)c1` [Compound I-453], the negative logarithm of the IC50 (pIC50) against KAT5 and against KAT6A was below 4.00 throughout.

As for `Cc1nn(CC(=O)NCCN(C)C)c(C(=O)NNS(=O)(=O)C2CCCCC2)c1F` [Compound I-502], the pIC50 at KAT5 and at KAT6A was below 4.00 throughout.

For the molecule `O=C(NNS(=O)(=O)c1ccccc1)c1c(F)cccc1F` [Compound I-166], the negative logarithm of the IC50 (pIC50) at KAT5 was below 4.00; against KAT6A it was 4.30 to 5.00.

Turning to `Cc1nn(Cc2ccccc2)cc1C(=O)NNS(=O)(=O)c1ccccc1` [Compound I-122], the negative logarithm of the IC50 (pIC50) against KAT5 and at KAT6A was below 4.00 each time.

With `Cc1cccc(-c2cc(C)c(F)c(C(=O)NNS(=O)(=O)C3CCCCC3)c2)c1` [Compound I-325], the pIC50 against KAT5 is at least 5.00; against KAT6A, 4.30 to 5.00.

Consider `Cc1cc(-c2ccccc2)cc(C(=O)NNS(=O)(=O)CC2CCCNC2)c1F` (stereo not shown) [Compound I-351], for which the values for the pIC50 against KAT5 and at KAT6A were 4.30 to 5.00 and below 4.00, respectively.

`Cc1cc(-c2ccccc2F)cc(C(=O)NNS(=O)(=O)c2ccccc2)c1F` [Compound I-271]: the pIC50 on KAT5 and against KAT6A was at least 5.00 each time.

`Cc1cc(C(C)(C)C)cc(C(=O)NNS(=O)(=O)c2ccccc2)c1O` [Compound I-462]: the pIC50 against KAT5 and on KAT6A was below 4.00 each time.

Turning to `Cc1cc(-c2ccccc2)cc(C(=O)NNS(=O)(=O)C2CN(Cc3ccc(Cl)cc3)C2)c1F` [Compound I-63], the pIC50 on KAT5 and against KAT6A was below 4.00 each time.

Take `Cc1c(-c2ccccc2)ccc(F)c1C(=O)NNS(=O)(=O)C(C)C` [Compound I-231]: the negative-log IC50 (pIC50) at KAT5 and against KAT6A was below 4.00 in each case.

For the molecule `O=C(NNS(=O)(=O)c1ccc2ccccc2c1)c1c(F)ccc(-c2ccccc2)c1F` [Compound I-164], the negative logarithm of the IC50 (pIC50) on KAT5 and at KAT6A was at least 5.00 in each case.

On to `O=C(NNS(=O)(=O)c1ccccc1)c1ccccc1F` [Compound I-165], for which the pIC50 against KAT5 is below 4.00; at KAT6A, 4.30 to 5.00.

In the case of `CC(C)(C)OC(=O)N1CCCC(CS(=O)(=O)NNC(=O)c2cc(-c3ccccc3)cc(Cl)c2F)C1` (stereo not shown) [Compound I-401], the pIC50 against KAT5 and against KAT6A was at least 5.00 in each case.

In the case of `Cc1cc(-c2ccccc2)cc(C(=O)NNS(=O)(=O)C(C)C2CCCNC2)c1F` (stereo not shown) [Compound I-314], the negative-log IC50 (pIC50) on KAT5 and against KAT6A was below 4.00 throughout.

With `COc1cc(Cl)c(F)c(C(=O)NNS(=O)(=O)C2CCOCC2)c1` [Compound I-430], the negative logarithm of the IC50 (pIC50) is 4.00 to 4.30 against KAT5 and below 4.00 against KAT6A.

On to `Cc1cc(-c2ccccc2)cc(C(=O)NNS(=O)(=O)Cc2cccc(Cl)c2)c1F` [Compound I-5], for which the pIC50 at KAT5 and against KAT6A was at least 5.00 each time.

In the case of `Cc1c(-c2ccccc2)ccc(F)c1C(=O)NNS(=O)(=O)C1CCCCC1` [Compound I-117], the figures for the negative-log IC50 (pIC50) at KAT5 and against KAT6A were below 4.00 and 4.00 to 4.30, respectively.

Regarding `CNCCC(=O)N1CCCC(CS(=O)(=O)NNC(=O)c2cc(-c3cccc(F)c3)cc(C)c2F)C1` (stereo not shown) [Compound I-328], the pIC50 against KAT5 and against KAT6A was 4.30 to 5.00 in each case.

Take `Cc1cc(-c2cccc(F)c2)cc(C(=O)NNS(=O)(=O)C2CCOC2)c1F` (stereo not shown) [Compound I-438]: the pIC50 against KAT5 and on KAT6A was 4.30 to 5.00 throughout.

Turning to `O=C(NNS(=O)(=O)CC1CCCCC1)c1cc(CO)cc(Cl)c1F` [Compound I-457], the pIC50 at KAT5 and against KAT6A was at least 5.00 throughout.

With `O=S(=O)(NNCc1ccccc1F)c1ccccc1` [Compound I-245], the pIC50 on KAT5 and against KAT6A was below 4.00 throughout.

Turning to `CCc1cc(F)cc(-c2cc(Cl)c(F)c(C(=O)NNS(=O)(=O)C3CCCCC3)c2)c1` [Compound I-498], the pIC50 on KAT5 and against KAT6A was 4.30 to 5.00 throughout.

`Cc1c(-c2ccccc2)ccc(F)c1C(=O)NNS(=O)(=O)c1ccccc1` [Compound I-251]: the negative logarithm of the IC50 (pIC50) is 4.00 to 4.30 on KAT5 and at least 5.00 on KAT6A.

Take `Cc1ccc(-c2ccccc2)c(F)c1C(=O)NNS(=O)(=O)c1ccccc1` [Compound I-139]: the pIC50 at KAT5 and on KAT6A was below 4.00 throughout.

As for `Cc1cc(-c2ccccc2)cc(C(=O)NNS(=O)(=O)c2cccc(OCc3ccccc3)c2)c1F` [Compound I-210], the negative logarithm of the IC50 (pIC50) on KAT5 and on KAT6A was at least 5.00 in each case.

Consider `Cc1cc(-c2ccccc2)cc(C(=O)NS(=O)(=O)c2ccccc2)c1F` [Compound I-168], for which the pIC50 against KAT5 and against KAT6A was 4.00 to 4.30 each time.

Take `O=C(NNS(=O)(=O)C1CCOCC1)c1cc(-c2ccc(O)cc2)cc(Cl)c1F` [Compound I-459]: the pIC50 was below 4.00 against KAT5 and at least 5.00 at KAT6A.

With `CCc1cc(Cl)c(F)c(C(=O)NNS(=O)(=O)CC2CCCCC2)c1` [Compound I-421], the pIC50 against KAT5 was at least 5.00; against KAT6A it was 4.30 to 5.00.

On to `COCCN1CCC(S(=O)(=O)NNC(=O)c2cc(-c3ccccc3)cc(C)c2F)CC1` [Compound I-93], for which the pIC50 at KAT5 and on KAT6A was 4.30 to 5.00 each time.

As for `Cc1cc(-c2cccc(F)c2)cc(C(=O)NNS(=O)(=O)CC2CCCN(C(=O)C(C)C)C2)c1F` (stereo not shown) [Compound I-292], the pIC50 against KAT5 and against KAT6A was at least 5.00 throughout.

Regarding `CCN1CCCC(S(=O)(=O)NNC(=O)c2cc(-c3ccccc3)cc(C)c2F)C1` (stereo not shown) [Compound I-99], the pIC50 against KAT5 is below 4.00; on KAT6A, 4.30 to 5.00.

On to `O=C(NNS(=O)(=O)c1ccccc1)c1cc(-c2ccccc2)cc(Cl)c1F` [Compound I-220], for which the negative logarithm of the IC50 (pIC50) against KAT5 and against KAT6A was at least 5.00 each time.

Take `O=S(=O)(NNc1n[nH]c2ccccc12)c1ccccc1` [Compound I-44]: the pIC50 at KAT5 and at KAT6A was below 4.00 in each case.

Regarding `O=C(NNS(=O)(=O)C1CCCCC1)c1c(Cl)ccc(Cl)c1F` [Compound I-461], the pIC50 against KAT5 and at KAT6A was below 4.00 throughout.

With `CC(=O)N1CCCC(S(=O)(=O)NNC(=O)c2cc(-c3ccccc3)cc(C)c2F)C1` (stereo not shown) [Compound I-102], the negative logarithm of the IC50 (pIC50) on KAT5 and against KAT6A was 4.30 to 5.00 throughout.

Consider `COCCN(C)C(=O)c1cc(Cl)c(F)c(C(=O)NNS(=O)(=O)C2CCOCC2)c1` [Compound I-471], for which the pIC50 against KAT5 and against KAT6A was below 4.00 each time.

`Cc1cc(-c2ccccc2)cc(C(=O)NCc2noc3ccccc23)c1F` [Compound I-368]: the pIC50 on KAT5 and at KAT6A was 4.00 to 4.30 throughout.

In the case of `Cc1cc(-c2ccccc2)cc(C(=O)NNS(=O)(=O)Cc2ccccc2Cl)c1F` [Compound I-8], the pIC50 at KAT5 and against KAT6A was at least 5.00 throughout.
